Source: US20140045890A1, “NOVEL COMPOUNDS” (SYNGENTA PARTICIPATIONS AG, priority 2011, published 2014)

Legend:
[1] = system: Blumeria qraminis f. sp. tritici (Erysiphe qraminis f. sp. tritici); experiment: Blumeria graminis f. sp. tritici / wheat / leaf disc preventative (powdery mildew on wheat); format: in vivo; details: foliar, wheat leaf segments cv. Kanzler, inoculated 1 day after application, assessed 6-8 days after application, read-out: inhibit fungal infestation (percent disease control compared to untreated)
[2] = system: Pythium ultimum; experiment: Pythium ultimum / liquid culture (seedling damping off); format: cell-based; details: Globisporangium ultimum, liquid culture in PDB, 24° C., 2-3 days after application, read-out: inhibit fungal infestation (inhibition of growth determined photometrically)
[3] = system: Plasmopara viticola; experiment: Plasmopara viticola / grape / leaf disc preventative; format: in vivo; details: foliar, grape vine leaf disks, inoculated 1 day after application, assessed 6-8 days after application, read-out: inhibit fungal infestation (percent disease control compared to untreated)
[4] = system: Phytophthora infestans; experiment: whole plant or invertebrate; format: in vivo; details: in Solanum lycopersicum, foliar, read-out: inhibit fungal infestation (percent disease control compared to untreated)

C#Cc1cnc2c(Cl)cc(OC(SC)C(=O)NCc3nc(C)cs3)cc2c1 (centres unmarked) [Compound 120]
inhibition at 200 ppm [1]: ≥ 80% | inhibition at 200 ppm [2]: ≥ 80% | inhibition at 200 ppm [3]: ≥ 80%

CSC(Oc1ccc2ncc(I)cc2c1)C(=O)NC(C)(C)c1nocc1C (centres unmarked) [Compound 110]
inhibition at 200 ppm [1]: ≥ 80% | inhibition at 200 ppm [2]: ≥ 80% | inhibition at 200 ppm [4]: ≥ 80% | inhibition at 200 ppm [3]: ≥ 80%

C#Cc1cnc2c(C)cc(OC(SC)C(=O)NC(C)(C)c3cc(C)on3)cc2c1 (centres unmarked) [Compound 67]
inhibition at 200 ppm [1]: ≥ 80% | inhibition at 200 ppm [2]: ≥ 80% | inhibition at 200 ppm [4]: ≥ 80% | inhibition at 200 ppm [3]: ≥ 80%

C#Cc1cnc2ccc(OC(SC)C(=O)NC(C)(C)c3nscc3C(=O)OC)cc2c1 (centres unmarked) [Compound 61]
inhibition at 200 ppm [2]: ≥ 80% | inhibition at 200 ppm [3]: ≥ 80%

C#Cc1cnc2ccc(OC(OC)C(=O)NC(C)(C)c3ccccn3)cc2c1 (centres unmarked) [Compound 55]
inhibition at 200 ppm [1]: ≥ 80% | inhibition at 200 ppm [2]: ≥ 80% | inhibition at 200 ppm [4]: ≥ 80%

COCc1cc(C(C)(C)NC(=O)C(Oc2ccc3ncc(SC)cc3c2)SC)no1 (centres unmarked) [Compound 100]
inhibition at 200 ppm [2]: ≥ 80% | inhibition at 200 ppm [4]: ≥ 80% | inhibition at 200 ppm [3]: ≥ 80%

C#Cc1cnc2ccc(OC(SC)C(=O)NCc3ncc(C)s3)cc2c1 (centres unmarked) [Compound 79]
inhibition at 200 ppm [1]: ≥ 80% | inhibition at 200 ppm [2]: ≥ 80%

C#Cc1cnc2c(Cl)cc(OC(SC)C(=O)NC(C)(C)c3cc(COC)on3)cc2c1 (centres unmarked) [Compound 96]
inhibition at 200 ppm [1]: ≥ 80% | inhibition at 200 ppm [2]: ≥ 80% | inhibition at 200 ppm [4]: ≥ 80% | inhibition at 200 ppm [3]: ≥ 80%

CSC(Oc1ccc2ncc(I)cc2c1)C(=O)NC(C)(C)c1cc(C(F)(F)F)on1 (centres unmarked) [Compound 108]
inhibition at 200 ppm [2]: ≥ 80% | inhibition at 200 ppm [3]: ≥ 80%

CSc1cnc2ccc(OC(SC)C(=O)NC(C)(C)c3cccc(C)n3)cc2c1 (centres unmarked) [Compound 114]
inhibition at 200 ppm [2]: ≥ 80%

C#Cc1cnc2c(C)cc(OC(SC)C(=O)NC(C)(C)c3cc(CO)on3)cc2c1 (centres unmarked) [Compound 43]
inhibition at 200 ppm [2]: ≥ 80% | inhibition at 200 ppm [4]: ≥ 80% | inhibition at 200 ppm [3]: ≥ 80%

C#Cc1cnc2ccc(OC(SC)C(=O)NC(C)(C)c3cc(C(F)(F)F)on3)cc2c1 (centres unmarked) [Compound 83]
inhibition at 200 ppm [1]: ≥ 80% | inhibition at 200 ppm [2]: ≥ 80% | inhibition at 200 ppm [4]: ≥ 80% | inhibition at 200 ppm [3]: ≥ 80%

CSc1cnc2ccc(OC(SC)C(=O)NC(C)(C)c3cc(C)on3)cc2c1 (centres unmarked) [Compound 66]
inhibition at 200 ppm [2]: ≥ 80% | inhibition at 200 ppm [3]: ≥ 80%

C#Cc1cnc2ccc(OC(SC)C(=O)NC(C)(C)c3noc4ccccc34)cc2c1 (centres unmarked) [Compound 50]
inhibition at 200 ppm [2]: ≥ 80% | inhibition at 200 ppm [3]: ≥ 80%

CSc1cnc2ccc(OC(SC)C(=O)NCc3nccs3)cc2c1 (centres unmarked) [Compound 118]
inhibition at 200 ppm [2]: ≥ 80%

C#Cc1cnc2cc(F)c(OC(SC)C(=O)NC(C)(C)c3cc(C)on3)cc2c1 (centres unmarked) [Compound 70]
inhibition at 200 ppm [4]: ≥ 80%

C#Cc1cnc2ccc(OC(SC)C(=O)NC3(c4ccccn4)CC3)cc2c1 (centres unmarked) [Compound 37]
inhibition at 200 ppm [1]: ≥ 80% | inhibition at 200 ppm [2]: ≥ 80% | inhibition at 200 ppm [4]: ≥ 80%

C#Cc1cnc2c(F)cc(OC(SC)C(=O)NC(C)(C)c3cc(COC)on3)cc2c1 (centres unmarked) [Compound 89]
inhibition at 200 ppm [1]: ≥ 80% | inhibition at 200 ppm [2]: ≥ 80% | inhibition at 200 ppm [4]: ≥ 80% | inhibition at 200 ppm [3]: ≥ 80%

C#Cc1cnc2c(Cl)cc(OC(SC)C(=O)NC(C)(C)c3nocc3C)cc2c1 (centres unmarked) [Compound 76]
inhibition at 200 ppm [2]: ≥ 80% | inhibition at 200 ppm [4]: ≥ 80% | inhibition at 200 ppm [3]: ≥ 80%

C#Cc1cnc2ccc(OC(SC)C(=O)NC(C)(C)c3nocc3Br)cc2c1 (centres unmarked) [Compound 64]
inhibition at 200 ppm [1]: ≥ 80% | inhibition at 200 ppm [2]: ≥ 80% | inhibition at 200 ppm [4]: ≥ 80% | inhibition at 200 ppm [3]: ≥ 80%

C#Cc1cnc2c(F)cc(OC(SC)C(=O)NCc3nccs3)cc2c1 (centres unmarked) [Compound 115]
inhibition at 200 ppm [1]: ≥ 80% | inhibition at 200 ppm [2]: ≥ 80%

CSc1cnc2ccc(OC(SC)C(=O)NCc3nc(C)cs3)cc2c1 (centres unmarked) [Compound 121]
inhibition at 200 ppm [2]: ≥ 80%

CSC(Oc1ccc2ncc(I)cc2c1)C(=O)NC(C)(C)c1cc(C)on1 (centres unmarked) [Compound 109]
inhibition at 200 ppm [1]: ≥ 80% | inhibition at 200 ppm [2]: ≥ 80% | inhibition at 200 ppm [4]: ≥ 80% | inhibition at 200 ppm [3]: ≥ 80%

C#Cc1cnc2c(Cl)cc(OC(SC)C(=O)NC(C)(C)c3cc(C(F)(F)F)on3)cc2c1 (centres unmarked) [Compound 99]
inhibition at 200 ppm [3]: ≥ 80%

C#Cc1cnc2ccc(OC(SC)C(=O)NC(C)(C)c3cc(CC)on3)cc2c1 (centres unmarked) [Compound 82]
inhibition at 200 ppm [1]: ≥ 80% | inhibition at 200 ppm [2]: ≥ 80% | inhibition at 200 ppm [4]: ≥ 80% | inhibition at 200 ppm [3]: ≥ 80%

C#Cc1cnc2c(C)cc(OC(SC)C(=O)NC(C)(C)c3cc(CC)on3)cc2c1 (centres unmarked) [Compound 94]
inhibition at 200 ppm [1]: ≥ 80% | inhibition at 200 ppm [2]: ≥ 80% | inhibition at 200 ppm [4]: ≥ 80% | inhibition at 200 ppm [3]: ≥ 80%

C#Cc1cnc2ccc(OC(SC)C(=O)NC(C)(C)c3cccnc3)cc2c1 (centres unmarked) [Compound 57]
inhibition at 200 ppm [2]: ≥ 80%

C#Cc1cnc2c(F)cc(OC(SC)C(=O)NCc3nc(C)cs3)cc2c1 (centres unmarked) [Compound 119]
inhibition at 200 ppm [1]: ≥ 80% | inhibition at 200 ppm [2]: ≥ 80% | inhibition at 200 ppm [3]: ≥ 80%

COC(Oc1cc(Cl)c2ncc(Br)cc2c1)C(=O)NC(C)(C)c1ccccn1 (centres unmarked) [Compound 14]
melting point: 95 °C

CSC(Oc1cc(C)c2ncc(I)cc2c1)C(=O)NCc1cccnc1 (centres unmarked) [Compound 125]
inhibition at 200 ppm [2]: ≥ 80%

C#Cc1cnc2c(C)cc(OC(SC)C(=O)NC3(c4ccccn4)CC3)cc2c1 (centres unmarked) [Compound 38]
inhibition at 200 ppm [2]: ≥ 80% | inhibition at 200 ppm [3]: ≥ 80%

C#Cc1cnc2ccc(OC(SC)C(=O)NC(C)(C)c3nc(C)c(C)s3)cc2c1 (centres unmarked) [Compound 63]
inhibition at 200 ppm [1]: ≥ 80% | inhibition at 200 ppm [2]: ≥ 80%

C#Cc1cnc2ccc(OC(SC)C(=O)NC(C)(C)c3cc(COC)on3)cc2c1 (centres unmarked) [Compound 52]
inhibition at 200 ppm [1]: ≥ 80% | inhibition at 200 ppm [2]: ≥ 80% | inhibition at 200 ppm [4]: ≥ 80% | inhibition at 200 ppm [3]: ≥ 80%

C#Cc1cnc2c(F)cc(OC(SC)C(=O)NC(C)(C)c3cc(C(F)(F)F)on3)cc2c1 (centres unmarked) [Compound 91]
inhibition at 200 ppm [4]: ≥ 80% | inhibition at 200 ppm [3]: ≥ 80%

C#Cc1cnc2ccc(OC(SC)C(=O)NC(C)(C)c3cc(C(=O)OC)sn3)cc2c1 (centres unmarked) [Compound 62, methyl 3-[1-[[2-[(3-ethynyl-6-quinolyl)oxy]-2-methylsulfanyl-acetyl]amino]-1-methyl-ethyl]isothiazole-5-carboxylate]
inhibition at 200 ppm [1]: ≥ 80% | inhibition at 200 ppm [2]: ≥ 80% | inhibition at 200 ppm [3]: ≥ 80%

CSc1cnc2ccc(OC(SC)C(=O)NC(C)(C)c3cc(Cl)on3)cc2c1 (centres unmarked) [Compound 71]
inhibition at 200 ppm [2]: ≥ 80% | inhibition at 200 ppm [3]: ≥ 80%

CSc1cnc2ccc(OC(SC)C(=O)NC(C)(C)c3nocc3Br)cc2c1 (centres unmarked) [Compound 65]
inhibition at 200 ppm [2]: ≥ 80%

C#Cc1cnc2ccc(OC(SC)C(=O)NC(C)(C)c3ccncc3)cc2c1 (centres unmarked) [Compound 35]
inhibition at 200 ppm [2]: ≥ 80%

C#Cc1cnc2c(C)cc(OC(SC)C(=O)NC(C)(C)c3ccncc3)cc2c1 (centres unmarked) [Compound 36]
inhibition at 200 ppm [2]: ≥ 80% | inhibition at 200 ppm [4]: ≥ 80% | inhibition at 200 ppm [3]: ≥ 80%

C#Cc1cnc2ccc(OC(SC)C(=O)NC(C)(C)c3cc(C(=O)OC)on3)cc2c1 (centres unmarked) [Compound 40]
inhibition at 200 ppm [2]: ≥ 80% | inhibition at 200 ppm [4]: ≥ 80%

C#Cc1cnc2c(F)cc(OC(SC)C(=O)NC(C)(C)c3nocc3C)cc2c1 (centres unmarked) [Compound 77]
inhibition at 200 ppm [1]: ≥ 80% | inhibition at 200 ppm [2]: ≥ 80% | inhibition at 200 ppm [4]: ≥ 80% | inhibition at 200 ppm [3]: ≥ 80%

CCc1cc(C(C)(C)NC(=O)C(Oc2ccc3ncc(SC)cc3c2)SC)no1 (centres unmarked) [Compound 103]
inhibition at 200 ppm [2]: ≥ 80% | inhibition at 200 ppm [3]: ≥ 80%

COCc1cc(C(C)(C)NC(=O)C(Oc2ccc3ncc(I)cc3c2)SC)no1 (centres unmarked) [Compound 105]
inhibition at 200 ppm [1]: ≥ 80% | inhibition at 200 ppm [2]: ≥ 80% | inhibition at 200 ppm [4]: ≥ 80% | inhibition at 200 ppm [3]: ≥ 80%

C#Cc1cnc2ccc(OC(SC)C(=O)NC(C)(C)c3nocc3I)cc2c1 (centres unmarked) [Compound 49]
inhibition at 200 ppm [2]: ≥ 80% | inhibition at 200 ppm [4]: ≥ 80% | inhibition at 200 ppm [3]: ≥ 80%

C#Cc1cnc2c(F)cc(OC(SC)C(=O)NCc3ncc(C)s3)cc2c1 (centres unmarked) [Compound 122]
inhibition at 200 ppm [1]: ≥ 80% | inhibition at 200 ppm [2]: ≥ 80%

CSc1cnc2ccc(OC(SC)C(=O)NC(C)(C)c3cc(C(F)(F)F)on3)cc2c1 (centres unmarked) [Compound 104]
inhibition at 200 ppm [2]: ≥ 80% | inhibition at 200 ppm [3]: ≥ 80%

CSc1cnc2ccc(OC(SC)C(=O)NC(C)(C)c3nocc3C)cc2c1 (centres unmarked) [Compound 74]
inhibition at 200 ppm [2]: ≥ 80%

C#Cc1cnc2c(C)cc(OC(SC)C(=O)NC(C)(C)c3cc(Cl)on3)cc2c1 (centres unmarked) [Compound 72]
inhibition at 200 ppm [2]: ≥ 80% | inhibition at 200 ppm [4]: ≥ 80% | inhibition at 200 ppm [3]: ≥ 80%

C#Cc1cnc2c(C)cc(OC(SC)C(=O)NC(C)(C)c3cc(C(=O)OC)on3)cc2c1 (centres unmarked) [Compound 41]
inhibition at 200 ppm [2]: ≥ 80% | inhibition at 200 ppm [3]: ≥ 80%

CSC(Oc1cc(C)c2ncc(I)cc2c1)C(=O)NCc1ccc(Cl)nc1 (centres unmarked) [Compound 127]
inhibition at 200 ppm [1]: ≥ 80%

C#Cc1cnc2ccc(OC(SC)C(=O)NC(C)(C)c3csc([Si](C)(C)C)n3)cc2c1 (centres unmarked) [Compound 58]
inhibition at 200 ppm [2]: ≥ 80%

C#Cc1cnc2c(C)cc(OC(SC)C(=O)NC(C)(C)c3cccnc3)cc2c1 (centres unmarked) [Compound 56]
inhibition at 200 ppm [2]: ≥ 80% | inhibition at 200 ppm [3]: ≥ 80%

C#Cc1cnc2c(F)cc(OC(SC)C(=O)NC(C)(C)c3cc(C)on3)cc2c1 (centres unmarked) [Compound 69]
inhibition at 200 ppm [1]: ≥ 80% | inhibition at 200 ppm [2]: ≥ 80% | inhibition at 200 ppm [4]: ≥ 80% | inhibition at 200 ppm [3]: ≥ 80%

C#Cc1cnc2ccc(OC(SC)C(=O)NC(C)(C)c3noc(C)c3Cl)cc2c1 (centres unmarked) [Compound 54]
inhibition at 200 ppm [1]: ≥ 80% | inhibition at 200 ppm [2]: ≥ 80% | inhibition at 200 ppm [4]: ≥ 80% | inhibition at 200 ppm [3]: ≥ 80%
